Data as given in ChEMBL document CHEMBL2163194, “Production of cytotoxic glidobactins/luminmycins by Photorhabdus asymbiotica in liquid media and live crickets” (J Nat Prod, 2012).

What was measured:
NIH3T3 = experiment: Cytotoxicity against mouse NIH/3T3 cells assessed as reduction in cell viability after 72 hrs by MTT assay; assay type: cell-based; conditions: nih3t3, 72 h
MIA PaCa-2 = experiment: Cytotoxicity against human MIAPaCa2 cells assessed as reduction in cell viability after 72 hrs by MTT assay; assay type: functional, cell-based; conditions: MIA PaCa-2, 72 h
[1] = Inhibition of 20S proteasome in human MIAPaCa2 cells after 90 mins by fluorescence-based […]; assay type: cell-based; conditions: mia paca-2

| Compound | Activity (NIH3T3) | IC50 (MIA PaCa-2) | IC50 [1] |
| --- | --- | --- | --- |
| CCCCCCC/C=C/C=C/C(=O)N[C@H](C(=O)N[C@H]1C[C@@H](O)CCNC(=O)/C=C/[C@H](C)NC1=O)[C@@H](C)O [GLIDOBACTIN A] | Non-toxic | 0.007 µM | 0.069 µM |
| CCCCCCC/C=C/C=C/C(=O)N[C@H](C(=O)N[C@H]1CCCCNC(=O)/C=C/[C@H](C)NC1=O)[C@@H](C)O [LUMINMYCIN A] | Non-toxic | 0.018 µM | 0.088 µM |
| CC(C)CCCCC/C=C/C=C/C(=O)N[C@H](C(=O)N[C@H]1CCCCNC(=O)/C=C/[C@H](C)NC1=O)[C@@H](C)O [LUMINMYCIN D] | Non-toxic | 0.11 µM | 0.38 µM |
